Laboratory results as given in patent US20150010928A1, “MEANS AND METHODS FOR ASSESSING AN ENDOCRINE DISEASE OR DISORDER” (priority 2012, published 2015).
Marks after values point to notes of the source that are not given here.

Tested on: male rats
Experiment: Plasma metabolite profiling (GC-MS, LC-MS, SPE-LC-MS) in male rats dosed once daily over 28 days (OECD 407)
Type: in vivo, rat
Design: key to erythro-Sphingoside (d18:1) / Tricosanoic acid (C23:0) / beta-Sitosterol / Tryptophan: ratio of treated group mean to untreated control group mean
Details: for Glucose, ratio versus control / Lysophosphatidylcholine (C20:4), ratio versus control / Threonic acid, ratio versus control / Alanine, ratio versus control / Androstenedione, ratio versus control / Cholesterol, ratio versus control / Glycine, ratio versus control / Heptadecanoic acid (C17:0), ratio versus control / Testosterone, ratio versus control / Threonine, ratio versus control / Uric acid, ratio versus control / alpha-Tocopherol, ratio versus control: male rats, plasma; for Glucose, ratio versus control / Lysophosphatidylcholine (C20:4), ratio versus control / Threonic acid, ratio versus control: low dose
Description: Each dose group in the studies consisted of five rats per sex. Additional groups of each 5 male and female animals served as controls. […] All animals of the animal population were kept under the same constant temperature (20-24±3° C.) and the same constant humidity (30-70%). The animals of the animal population were fed ad libitum. The food to be used was essentially free of chemical or microbial contaminants. Drinking water was also offered ad libitum. Accordingly, the water was free of chemical and microbial contaminants as laid down in the European Drinking Water Directive 98/83/EG. The illumination period was 12 hours light followed by 12 hours darkness (12 hours light, from 6:00 to 18:00, and 12 hours darkness, from 18:00 to 6:00). […] The test substances (compounds) in the Tables 1 to 17 below were dosed and administered as described in the Table 18.
In the morning of day 7, 14, and 28, blood was taken from the retroorbital venous plexus from fasted anaesthetized animals. From each animal, 1 ml of blood was collected with EDTA as anticoagulant. The samples were centrifuged for generation of plasma. All plasma samples were covered with a N2 atmosphere and then stored at −80° C. until analysis.
For mass spectrometry-based metabolite profiling analyses plasma samples were extracted and a polar and a non-polar (lipid) fraction was obtained. For GC-MS analysis, the non-polar fraction was treated with methanol under acidic conditions to yield the fatty acid methyl esters. Both fractions were further derivatised with O-methyl-hydroxyamine hydrochloride and pyridine to convert Oxogroups to O-methyloximes and subsequently with a silylating agent before analysis. In LC-MS analysis, both fractions were reconstituted in appropriate solvent mixtures. HPLC was performed by gradient elution on reversed phase separation columns. Mass spectrometric detection which allows target and high sensitivity MRM (Multiple Reaction Monitoring) profiling in parallel to a full screen analysis was applied as described in WO2003073464.
Steroids and their metabolites were measured by online SPE-LC-MS (Solid phase extraction-LC-MS).
Following comprehensive analytical validation steps, the data for each analyte were normalized against data from pool samples. These samples were run in parallel through the whole process to account for process variability. The significance of treatment group values specific for sex, treatmentduration and metabolite was determined by comparing means of the treated groups to the means of the respective untreated control groups using WELCH-test and quantified with treatment ratios versus control and p-values.
The identification of the most important biomarkers per toxicity pattern was done by a ranking of the analytes in the tables below. Therefore the metabolic changes in reference treatments of a given pattern (shown in the table) were compared with changes of the same metabolite in other unrelated treatments. […] The maximum absolute value of the respective TVALUE was taken to indicate the most important metabolite for the pattern.

## CC(C)C(=O)Nc1ccc([N+](=O)[O-])c(C(F)(F)F)c1 [Flutamide]
m7, high dose, Table 10a
  3-O-Methylsphingosine (d18:1): 1.27 *
  Nervonic acid (C24:cis[15]1): 1.39 *
  Stearic acid (C18:0): 1.15 *
  alpha-Tocopherol: 1.55 *
  threo-Sphingosine (d18:1): 1.39 *
m7, high dose, Table 10b
  Thyroxine (T4): 0.46 *
  trans-4-Hydroxyproline: 0.79 *
m7, high dose, Table 11a
  3-Methoxytyrosine: 1.97 *
  3-O-Methylsphingosine (d18:1): 1.27 *
  Androstenedione: 19.42 *
  Behenic acid (C22:0): 1.89 *
  Dodecanol: 1.2 *
  Eicosanoic acid (C20:0): 2.11 *
  Galactose, lipid fraction: 1.44 *
  Glycerol phosphate, lipid fraction: 1.57 *
  Nervonic acid (C24:cis[15]1): 1.39 *
  Noradrenaline (Norepinephrine): 1.36 *
  Phosphatidylcholine (C18:0, C18:2): 1.38 *
  Phytosphingosine: 2.29 *
  Stearic acid (C18:0): 1.15 *
  Testosterone: 10.33 *
  Tryptophan: 1.22 *
  dihomo-gamma-Linolenic acid (C20:cis[8,11,14]3): 1.55 *
  myo-Inositol-2-phosphate, lipid fraction: 2.52 *
  threo-Sphingosine (d18:1): 1.39 *
m7, high dose, Table 11b
  3-Hydroxybutyrate: 0.53 *
  4-Hydroxy-3-methoxyphenylglycol (HMPG): 0.67 *
  18-Hydroxy-11-deoxycorticosterone: 0.75^
  21-Hydroxyprogesterone (11-Deoxycorticosterone): 0.65^
  Citrate: 0.74 *
  Coenzyme Q9: 0.73 *
  Coenzyme Q10: 0.58 *
  Corticosterone: 0.83^
  Metanephrine: 0.5 *
  Palmitoleic acid (C16:cis[9]1): 0.77 *
  Progesterone: 0.64^
  trans-4-Hydroxyproline: 0.79 *
m14, high dose, Table 10a
  3-O-Methylsphingosine (d18:1): 0.78
  5-O-Methylsphingosine (d18:1): 0.81
  Cysteine: 0.96
  Lignoceric acid (C24:0): 0.9
  Nervonic acid (C24:cis[15]1): 0.93
  Oleic acid (C18:cis[9]1): 1.1
  Stearic acid (C18:0): 1.01
  alpha-Tocopherol: 1.24
  erythro-Sphingoside (d18:1): 0.79
  threo-Sphingosine (d18:1): 0.95
m14, high dose, Table 10b
  Oleic acid (C18:cis[9]1): 1.1
  Phosphatidylcholine (C16:0, C16:0): 0.7 *
  Thyroxine (T4): 0.57^
  trans-4-Hydroxyproline: 0.89 *
m14, high dose, Table 11a
  3-Methoxytyrosine: 1.47 *
  3-O-Methylsphingosine (d18:1): 0.78
  5-O-Methylsphingosine (d18:1): 0.81
  Androstenedione: 46.48 *
  Arachidonic acid (C20:cis[5,8,11,14]4): 0.99
  Cholesterol: 1.07
  Cysteine: 0.96
  Eicosanoic acid (C20:0): 1.84 *
  Galactose, lipid fraction: 1.07
  Glycerol phosphate, lipid fraction: 1.18 *
  Indole-3-lactic acid: 1.06
  Lignoceric acid (C24:0): 0.9
  Nervonic acid (C24:cis[15]1): 0.93
  Noradrenaline (Norepinephrine): 1.85 *
  Phosphate, lipid fraction: 1.08
  Phosphatidylcholine (C18:0, C18:2): 1.17
  Phosphatidylcholine (C18:0, C20:3): 1.01
  Phosphatidylcholine (C18:0, C22:6): 0.96
  Phosphatidylcholine (C18:0,C18:1): 1.15
  Stearic acid (C18:0): 1.01
  Testosterone: 16.89 *
  Tricosanoic acid (C23:0): 0.9
  Tryptophan: 1.15
  alpha-Tocopherol: 1.16
  beta-Sitosterol: 0.91
  dihomo-gamma-Linolenic acid (C20:cis[8,11,14]3): 1.46 *
  erythro-Sphingosine (d18:1): 0.79
  threo-Sphingosine (d18:1): 0.95
m14, high dose, Table 11b
  3-Hydroxybutyrate: 0.72 *
  4-Hydroxy-3-methoxyphenylglycol (HMPG): 0.7 *
  18-Hydroxy-11-deoxycorticosterone: 0.48 *
  21-Hydroxyprogesterone (11-Deoxycorticosterone): 0.31 *
  Citrate: 0.88 *
  Coenzyme Q10: 0.43 *
  Corticosterone: 0.38 *
  Metanephrine: 0.61 *
  Palmitoleic acid (C16:cis[9]1): 0.68 *
  Phosphatidylcholine (C16:0, C16:0): 0.7 *
  Progesterone: 0.33 *
  trans-4-Hydroxyproline: 0.89 *
m28, high dose, Table 10a
  3-O-Methylsphingosine (d18:1): 1.52^
  Cysteine: 1.41 *
  Lignoceric acid (C24:0): 1.3 *
  Nervonic acid (C24:cis[15]1): 1.46 *
  alpha-Tocopherol: 1.54 *
  threo-Sphingosine (d18:1): 1.38 *
m28, high dose, Table 10b
  Phosphatidylcholine (C16:0, C16:0): 0.81 *
  Thyroxine (T4): 0.72^
  trans-4-Hydroxyproline: 0.72 *
m28, high dose, Table 11a
  3-Methoxytyrosine: 1.55 *
  3-O-Methylsphingosine (d18:1): 1.52 *
  Androstenedione: 18.79 *
  Behenic acid (C22:0): 1.34 *
  Cholesterol: 1.22 *
  Cysteine: 1.41 *
  Eicosanoic acid (C20:0): 1.93 *
  Histidine: 0.98^
  Lignoceric acid (C24:0): 1.3 *
  Nervonic acid (C24:cis[15]1): 1.46 *
  Noradrenaline (Norepinephrine): 0.93^
  Phosphatidylcholine (C18:0, C20:3): 0.94^
  Phosphatidylcholine (C18:0, C22:6): 1.34 *
  Testosterone: 8.45 *
  Threonine: 1.22 *
  alpha-Tocopherol: 1.19^
  beta-Sitosterol: 0.89^
  dihomo-gamma-Linolenic acid (C20:cis[8,11,14]3): 2.58 *
  myo-Inositol-2-phosphate, lipid fraction: 1.44 *
  threo-Sphingosine (d18:1): 1.38 *
m28, high dose, Table 11b
  4-Hydroxy-3-methoxyphenylglycol (HMPG): 0.8 *
  18-Hydroxy-11-deoxycorticosterone: 0.07 *
  21-Hydroxyprogesterone (11-Deoxycorticosterone): 0.26 *
  Citrate: 0.9
  Coenzyme Q9: 0.95^
  Coenzyme Q10: 0.4 *
  Corticosterone: 0.07 *
  Metanephrine: 0.48 *
  Palmitoleic acid (C16:cis[9]1): 0.6 *
  Phosphatidylcholine (C16:0, C16:0): 0.81 *
  Progesterone: 0.25 *
  trans-4-Hydroxyproline: 0.72 *
rat, in vivo
  3-Hydroxybutyrate: 1.08^
  Behenic acid (C22:0): 1.12 *
  Cholesterol: 1.43 *
  Coenzyme Q9: 1.04^
  Cysteine: 1.21^
  Galactose, lipid fraction: 1.23 *
  Glycerol phosphate, lipid fraction: 1.28 *
  Lignoceric acid (C24:0): 1.43 *
  Phosphatidylcholine (C16:0, C16:0): 1.12^
  Phosphatidylcholine (C18:0, C18:2): 1.13^
  Phosphatidylcholine (C18:0, C20:3): 1.14 *
  Phosphatidylcholine (C18:0, C22:6): 1.01^
  Stearic acid (C18:0): 1.29 *
  Tryptophan: 1.08 *
  alpha-Tocopherol: 1.43 *
  beta-Sitosterol: 1.24 *
  myo-Inositol-2-phosphate, lipid fraction: 1.06 *

## C[C@]12CCC(=O)C(O)=C1CC[C@@H]1[C@@H]2CC[C@]2(C)C(=O)CC[C@@H]12 [Formestane]
Day 7
  Glucose, ratio versus control: 0.8 *
  Lysophosphatidylcholine (C20:4), ratio versus control: 0.99 *
  Threonic acid, ratio versus control: 1.27 *
Day 14
  Glucose, ratio versus control: 0.89 *
  Lysophosphatidylcholine (C20:4), ratio versus control: 0.97 *
  Threonic acid, ratio versus control: 1.24 *
Day 28
  Glucose, ratio versus control: 0.9 *
  Lysophosphatidylcholine (C20:4), ratio versus control: 0.96 *
  Threonic acid, ratio versus control: 1.44 *

## O=P1(NCCCl)OCCCN1CCCl (stereo not shown) [Ifosfamide]
High dose, day 7
  Alanine, ratio versus control: 1.07
  Androstenedione, ratio versus control: 3.68
  Cholesterol, ratio versus control: 1.12
  Glycine, ratio versus control: 1.33
  Heptadecanoic acid (C17:0), ratio versus control: 0.94
  Testosterone, ratio versus control: 2.35
  Threonine, ratio versus control: 1.21
  Uric acid, ratio versus control: 0.57
  alpha-Tocopherol, ratio versus control: 0.99
High dose, day 14
  Androstenedione, ratio versus control: 0.21 *
  Testosterone, ratio versus control: 0.21 *
High dose, day 28
  Alanine, ratio versus control: 0.76
  Androstenedione, ratio versus control: 0.24 *
  Cholesterol, ratio versus control: 1.13
  Glycine, ratio versus control: 1.28
  Heptadecanoic acid (C17:0), ratio versus control: 1.08
  Testosterone, ratio versus control: 0.22 *
  Threonine, ratio versus control: 0.88
  Uric acid, ratio versus control: 0.65
  alpha-Tocopherol, ratio versus control: 0.95
